Measured values: patent publication US20250163066A1, “PROTACs of MALT1” (TEGID THERAPEUTICS, INC., priority 2022, published 2025)

Biological target: MALT1 (Homo sapiens (Human), UniProt Q9UDY8)
Test: MALT1 enzymatic activity inhibition (fluorescence, Ac-LRSR-AMC substrate)
Format: biochemical
Conditions: recombinant MALT1 1.5 ng/μl, Ac-LRSR-AMC 1 μM
Summary of the method: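 Recombinant human MALT1 (1.5 ng/μl final) preincubated 10 min at rt with compounds in 50 mM HEPES pH 7.2-7.4, 100 mM NaCl, 900 mM sodium citrate, 10 mM DTT; 1 μM Ac-LRSR-AMC then added. AMC fluorescence read at start and after 30 min 37 °C plus 30 min rt; difference gives signal, % inhibition fitted to IC50.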

Chain of MALT1 (Q9UDY8 whole entry): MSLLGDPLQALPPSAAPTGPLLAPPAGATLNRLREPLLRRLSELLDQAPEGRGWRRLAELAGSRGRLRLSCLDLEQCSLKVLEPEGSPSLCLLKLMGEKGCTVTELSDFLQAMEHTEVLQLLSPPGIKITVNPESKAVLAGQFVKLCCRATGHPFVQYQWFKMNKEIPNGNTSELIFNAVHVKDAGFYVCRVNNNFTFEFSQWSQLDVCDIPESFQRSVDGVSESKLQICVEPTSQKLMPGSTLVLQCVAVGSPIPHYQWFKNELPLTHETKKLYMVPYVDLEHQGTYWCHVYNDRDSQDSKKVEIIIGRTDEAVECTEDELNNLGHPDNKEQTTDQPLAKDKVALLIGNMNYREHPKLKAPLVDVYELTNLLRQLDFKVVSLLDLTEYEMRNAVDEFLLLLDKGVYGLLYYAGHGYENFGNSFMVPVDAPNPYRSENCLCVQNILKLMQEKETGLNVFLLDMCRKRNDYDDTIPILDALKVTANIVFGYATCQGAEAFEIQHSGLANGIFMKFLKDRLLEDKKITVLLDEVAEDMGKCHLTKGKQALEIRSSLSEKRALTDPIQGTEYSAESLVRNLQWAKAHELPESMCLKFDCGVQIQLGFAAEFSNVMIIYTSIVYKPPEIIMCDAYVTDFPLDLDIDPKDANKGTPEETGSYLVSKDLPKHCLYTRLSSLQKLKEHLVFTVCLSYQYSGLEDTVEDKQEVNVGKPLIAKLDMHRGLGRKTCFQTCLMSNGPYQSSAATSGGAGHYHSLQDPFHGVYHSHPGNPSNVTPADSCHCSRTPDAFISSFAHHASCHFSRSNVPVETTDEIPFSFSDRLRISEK

| SMILES | EC50 [µM] |
| --- | --- |
| O=C(CCOCCN1CCN(c2ccc3c(c2)CN(C2CCC(=O)NC2=O)C3=O)CC1)NCCOc1ncc(Cl)cc1NC(=O)Nc1cnc2ncnn2c1C1CCCCC1 (stereo not drawn) [Compound 51, N-[2-[[5-chloro-3-[(7-cyclohexyl-[1,2,4]triazolo[1,5-a]pyrimidin-6-yl)carbamoylamino]-2-pyridyl]oxy]ethyl]-3-[2-[4-[2-(2,6-dioxo-3-piperidyl)-1-oxo-isoindolin-5-yl]piperazin-1-yl]ethoxy]propanamide] | > 5 |
| COc1cc(-c2c(NC(=O)Nc3cnc(-c4noc(CNC(=O)CCOCCN5CCN(c6ccc7c(c6)CN(C6CCC(=O)NC6=O)C7=O)CC5)n4)c(C)c3)cnc3ccnn23)cc(OC)c1OC (stereo not drawn) [Compound 1, 3-(2-{4-[2-(2,6-Dioxopiperidin-3-yl)-1-oxo-2,3-dihydro-1H-isoindol-5-yl]piperazin-1-yl}ethoxy)-N-[(3-{3-methyl-5-[({[7-(3,4,5-trimethoxyphenyl)pyrazolo[1,5-a]pyrimidin-6-yl]amino}carbonyl)amino]pyridin-2-yl}-1,2,4-oxadiazol-5-yl)methyl]propenamide] | > 5 |
| Cc1cc(NC(=O)Nc2cnc3ccnn3c2C2CCCC2)cnc1-c1noc(CCCCC(=O)Nc2cccc(C3CCC(=O)NC3=O)c2)n1 (stereo not drawn) [Compound 100, 5-[3-[5-[(7-cyclopentylpyrazolo[1,5-a]pyrimidin-6-yl)carbamoylamino]-3-methyl-2-pyridyl]-1,2,4-oxadiazol-5-yl]-N-[3-(2,6-dioxo-3-piperidyl)phenyl]pentanamide] | 0.2 to 0.5 |
| Cc1cc(NC(=O)Nc2cnc3c(Cl)cnn3c2C2CCCC2)cnc1-c1noc(CCCCN2CCN(c3ccc4c(c3)CN(C3CCC(=O)NC3=O)C4=O)CC2)n1 (stereo not drawn) [Compound 20, 1-(3-chloro-7-cyclopentyl-pyrazolo[1,5-a]pyrimidin-6-yl)-3-[6-[5-[4-[4-[2-(2,6-dioxo-3-piperidyl)-1-oxo-isoindolin-5-yl]piperazin-1-yl]butyl]-1,2,4-oxadiazol-3-yl]-5-methyl-3-pyridyl]urea] | 1 to 5 |
| Cc1cc(NC(=O)Nc2cnc3ccnn3c2C(C)C)cnc1-c1noc(CCCCC(=O)N2CCN(c3ccc4c(c3)CN(C3CCC(=O)N(C)C3=O)C4=O)CC2)n1 (stereo not drawn) [Compound 145, 1-(7-isopropylpyrazolo[1,5-a]pyrimidin-6-yl)-3-[5-methyl-6-[5-[5-[4-[2-(1-methyl-2,6-dioxo-3-piperidyl)-1-oxo-isoindolin-5-yl]piperazin-1-yl]-5-oxo-pentyl]-1,2,4-oxadiazol-3-yl]-3-pyridyl]urea] | ≤ 0.2 |
| Cc1cc(NC(=O)Nc2cnc3ccnn3c2C(C)C)cnc1-c1noc(CCCCC(=O)N2CCN(c3ccc4c(c3)CN(C3CCC(=O)N(COC(=O)C(C)(C)C)C3=O)C4=O)CC2)n1 (stereo not drawn) [Compound 130, [3-[5-[4-[5-[3-[5-[(7-isopropylpyrazolo[1,5-a]pyrimidin-6-yl)carbamoylamino]-3-methyl-2-pyridyl]-1,2,4-oxadiazol-5-yl]pentanoyl]piperazin-1-yl]-1-oxo-isoindolin-2-yl]-2,6-dioxo-1-piperidyl]methyl 2,2-dimethylpropanoate] | ≤ 0.2 |
| O=C(CCOCCOCCN1CCN(c2ccc3c(c2)CN(C2CCC(=O)NC2=O)C3=O)CC1)NCCOc1ccc(Cl)cc1NC(=O)Nc1cnc2ccnn2c1C1CCCC1 (stereo not drawn) [Compound 49, N-[2-[4-chloro-2-[(7-cyclopentylpyrazolo[1,5-a]pyrimidin-6-yl)carbamoylamino]phenoxy]ethyl]-3-[2-[2-[4-[2-(2,6-dioxo-3-piperidyl)-1-oxo-isoindolin-5-yl]piperazin-1-yl]ethoxy]ethoxy]propanamide] | 1 to 5 |
| O=C1CCC(N2Cc3cc(N4CCN(C(=O)CCCc5nc(-c6ncc(NC(=O)Nc7cnc8ccnn8c7C7CC7)cc6Cl)no5)CC4)ccc3C2=O)C(=O)N1 (stereo not drawn) [Compound 165, 1-[5-chloro-6-[5-[4-[4-[2-(2,6-dioxo-3-piperidyl)-1-oxo-isoindolin-5-yl]piperazin-1-yl]-4-oxo-butyl]-1,2,4-oxadiazol-3-yl]-3-pyridyl]-3-(7-cyclopropylpyrazolo[1,5-a]pyrimidin-6-yl)urea] | ≤ 0.2 |
| O=C(CCOCCN1CCN(c2ccc3c(c2)CN(C2CCC(=O)NC2=O)C3=O)CC1)NCCOc1ccc(Cl)cc1NC(=O)Nc1cnc2ccnn2c1C1CCCC1 (stereo not drawn) [Compound 43, N-[2-[4-chloro-2-[(7-cyclopentylpyrazolo[1,5-a]pyrimidin-6-yl)carbamoylamino]phenoxy]ethyl]-3-[2-[4-[2-(2,6-dioxo-3-piperidyl)-1-oxo-isoindolin-5-yl]piperazin-1-yl]ethoxy]propanamide] | 1 to 5 |
| Cc1cc(NC(=O)Nc2cnc3ccnn3c2C(C)C)cnc1-c1noc(CCCC(=O)N2CCN(c3ccc4c(c3)CN(C3CCC(=O)N(COC(=O)C(C)(C)C)C3=O)C4=O)CC2)n1 (stereo not drawn) [Compound 149, [3-[5-[4-[4-[3-[5-[(7-isopropylpyrazolo[1,5-a]pyrimidin-6-yl)carbamoylamino]-3-methyl-2-pyridyl]-1,2,4-oxadiazol-5-yl]butanoyl]piperazin-1-yl]-1-oxo-isoindolin-2-yl]-2,6-dioxo-1-piperidyl]methyl 2,2-dimethylpropanoate] | ≤ 0.2 |
| O=C(CCOCCOCCN1CCN(c2ccc3c(c2)CN(C2CCC(=O)NC2=O)C3=O)CC1)NCCOc1ncc(Cl)cc1NC(=O)Nc1cnc2ccnn2c1C1CCOCC1 (stereo not drawn) [Compound 41, N-[2-[[5-chloro-3-[(7-tetrahydropyran-4-ylpyrazolo[1,5-a]pyrimidin-6-yl)carbamoylamino]-2-pyridyl]oxy]ethyl]-3-[2-[2-[4-[2-(2,6-dioxo-3-piperidyl)-1-oxo-isoindolin-5-yl]piperazin-1-yl]ethoxy]ethoxy]propanamide] | 0.5 to 1 |
| Cc1cc(NC(=O)Nc2cnc3ccnn3c2C2CCCO2)cnc1-c1noc(CCCN2CCN(c3ccc4c(c3)CN(C3CCC(=O)NC3=O)C4=O)CC2)n1 (stereo not drawn) [Compound 62, 1-[6-[5-[3-[4-[2-(2,6-dioxo-3-piperidyl)-1-oxo-isoindolin-5-yl]piperazin-1-yl]propyl]-1,2,4-oxadiazol-3-yl]-5-methyl-3-pyridyl]-3-(7-tetrahydrofuran-2-ylpyrazolo[1,5-a]pyrimidin-6-yl)urea] | ≤ 0.2 |
| Cc1cc(NC(=O)Nc2cnc3ccnn3c2C2CCCC2)cnc1-c1noc(CCCCN2CCN(c3ccc4c(c3)CN(C3CCC(=O)NC3=O)C4=O)CC2)n1 (stereo not drawn) [Compound 21, 1-(7-cyclopentylpyrazolo[1,5-a]pyrimidin-6-yl)-3-[6-[5-[4-[4-[2-(2,6-dioxo-3-piperidyl)-1-oxo-isoindolin-5-yl]piperazin-1-yl]butyl]-1,2,4-oxadiazol-3-yl]-5-methyl-3-pyridyl]urea] | ≤ 0.2 |
| CC(C)c1c(NC(=O)Nc2cnc(-c3noc(CCCC(=O)N4CCN(c5ccc6c(c5)CN(C5CCC(=O)NC5=O)C6=O)CC4)n3)c(Cl)c2)cnc2ccnn12 (stereo not drawn) [Compound 140, 1-[5-chloro-6-[5-[4-[4-[2-(2,6-dioxo-3-piperidyl)-1-oxo-isoindolin-5-yl]piperazin-1-yl]-4-oxo-butyl]-1,2,4-oxadiazol-3-yl]-3-pyridyl]-3-(7-isopropylpyrazolo[1,5-a]pyrimidin-6-yl)urea] | ≤ 0.2 |
| Cc1cc(NC(=O)Nc2cnc3ccnn3c2C2CCCO2)cnc1N1CCN(C(=O)CCOCCOCCN2CCN(c3ccc4c(c3)CN(C3CCC(=O)NC3=O)C4=O)CC2)CC1 (stereo not drawn) [Compound 31, 1-[6-[4-[3-[2-[2-[4-[2-(2,6-dioxo-3-piperidyl)-1-oxo-isoindolin-5-yl]piperazin-1-yl]ethoxy]ethoxy]propanoyl]piperazin-1-yl]-5-methyl-3-pyridyl]-3-(7-tetrahydrofuran-2-ylpyrazolo[1,5-a]pyrimidin-6-yl)urea] | > 5 |
| CCCCOP(=O)(OCCCC)OCN1C(=O)CCC(N2Cc3cc(N4CCN(C(=O)CCCCc5nc(-c6ncc(NC(=O)Nc7cnc8ccnn8c7C(C)C)cc6C)no5)CC4)ccc3C2=O)C1=O (stereo not drawn) [Compound 147, dibutyl [3-[5-[4-[5-[3-[5-[(7-isopropylpyrazolo[1,5-a]pyrimidin-6-yl)carbamoylamino]-3-methyl-2-pyridyl]-1,2,4-oxadiazol-5-yl]pentanoyl]piperazin-1-yl]-1-oxo-isoindolin-2-yl]-2,6-dioxo-1-piperidyl]methyl phosphate] | ≤ 0.2 |
| CC(C)c1c(NC(=O)Nc2cnc(-c3noc(CCCC(=O)N4CCN(c5ccc6c(c5)CN(C5CCC(=O)N(COC(=O)C(C)(C)C)C5=O)C6=O)CC4)n3)c(Cl)c2)cnc2ccnn12 (stereo not drawn) [Compound 137, [3-[5-[4-[4-[3-[3-chloro-5-[(7-isopropylpyrazolo[1,5-a]pyrimidin-6-yl)carbamoylamino]-2-pyridyl]-1,2,4-oxadiazol-5-yl]butanoyl]piperazin-1-yl]-1-oxo-isoindolin-2-yl]-2,6-dioxo-1-piperidyl]methyl 2,2-dimethylpropanoate] | ≤ 0.2 |
| Cc1cc(NC(=O)Nc2cnc3ccnn3c2C2CCCC2)cnc1-c1noc(CCCCCCN2CCN(c3ccc4c(c3)CN(C3CCC(=O)NC3=O)C4=O)CC2)n1 (stereo not drawn) [Compound 68, 1-(7-cyclopentylpyrazolo[1,5-a]pyrimidin-6-yl)-3-[6-[5-[6-[4-[2-(2,6-dioxo-3-piperidyl)-1-oxo-isoindolin-5-yl]piperazin-1-yl]hexyl]-1,2,4-oxadiazol-3-yl]-5-methyl-3-pyridyl]urea] | ≤ 0.2 |
